Laboratory results published in patent US6649610B1, “2-oxo-1, 4-benzoxazine compounds for treatment of tuberculosis” (priority 2001, dated 2003).

How the values were obtained:
[1] = test system: human and non-human myeloma; experiment: Activity against myeloma
[2] = test system: M. tuberculosis ATCC 25177; experiment: BACTEC 460 radiometric growth inhibition bio-assay; assay type: cell-based, Mycobacterium tuberculosis; settings: final concentration of 0.1 mg/ml; BACTEC 12B medium; growth index
white mice = experiment: Animal toxicity bioassay (acute toxicity, intraperitoneal); assay type: in vivo; settings: intraperitoneal injection, observed 14 days
Experimental: (§1) Animal Toxicity Bioassay. Acute toxicity was studied on white mice of both sexes with weight ranging between 18-26 grams under intraperitoneal injection of 2% solution of tested compound in starch (the compound was dissolved in starch slime and injected) on the basis of 0.1 ml of solution per 10 g of the animal weight. Each dose was tested on the group of 6 animals that were observed during 14 day period. (This method was approved by the Pharmacology committee of Russian Ministry of Health and has been widely used since 1968.) Averaged lethal dose (LD50) of the compound was computed using results of experiments on 5-7 groups of animals using the method of Litchfield and Wilkinson. (Belenkii M. L. “Elements of quantative determination of the pharmacological effect,” Leningrad, 1963, 71 pages).

[3] = as above; assay type: in vivo; settings: both sexes, mouse, in vivo, ip; white mice, intraperitoneal injection, observed 14 days
Experimental: as §1

white mouse = settings: intraperitoneal injection; cited from earlier work
man = settings: cited from earlier work

O=C(Oc1c(-c2nc3ccccc3oc2=O)c(=O)n2c(c1C(=O)c1ccccc1)c(=O)oc1ccccc12)c1ccccc1 [1F-18, 4-benzoyl-3-benzoyloxy-2-(2-oxo-2H-1,4-benzoxazin-3-yl)pyrido[2,1-c][1,4]benzoxazin-1,5-dione]
activity against human and non-human myeloma [1]: 100% | percent activity against Mycobacterium tuberculosis [2]: 95% | LD50 (white mice): > 2000 mg/kg

COc1ccc(C(=O)C(C(=O)Oc2c(C)cc(C)cc2C)=C2Nc3ccccc3OC2=O)cc1 [1F-19, 2,4,6-trimethylphenyl 2-(3,4-dihydro-2-oxo-2H-1,4-benzoxazin-3-ylidene)-3-p-methoxyphenyl-3-oxo-propanoate]
percent activity against Mycobacterium tuberculosis [2]: 97% | LD50 at 14 day [3]: > 1000 mg/kg

NNC(=O)c1ccncc1 [isoniazid, isonicotinic acid hydrazide]
LD50 (lethal dose 50 percent kill) (white mouse): 100 mg/kg | acute ingestion amount leading to mild toxicity (man; adults, acute ingestion): 1.5 g | ingestion amount that may be fatal (man; adults, acute ingestion): 6 to 10 g | ingestion amount usually fatal if not appropriately treated (man; adults, acute ingestion): 15 g | overall mortality rate for acute isoniazid toxicity (man; estimated): 19% | hepatitis-related death rate (man; individuals who complete a full course of prophylaxis): 23.2-57.9 /100,000 | mortality rate (man; individuals who develop overt isoniazid-induced hepatitis): 10% | LCL0 (lowest published lethal concentration) (man; man): 100 mg/kg | overall hepatitis-related death rate (man; patients using isoniazid prophylaxis): approximately 0.001%
